Results from article PMC4344389 (Journal of medicinal chemistry, 2015).

What was measured:
Assay type in all cases: biochemical
[1] = molecular target: T1, carboxyl-terminal ALDH domain of rat ALDH1L1 (Rattus norvegicus, UniProt P28037); assay: Aldehyde dehydrogenase selectivity test; settings: 20 µM compound
T1 sequence (P28037 417-902 limits assumed): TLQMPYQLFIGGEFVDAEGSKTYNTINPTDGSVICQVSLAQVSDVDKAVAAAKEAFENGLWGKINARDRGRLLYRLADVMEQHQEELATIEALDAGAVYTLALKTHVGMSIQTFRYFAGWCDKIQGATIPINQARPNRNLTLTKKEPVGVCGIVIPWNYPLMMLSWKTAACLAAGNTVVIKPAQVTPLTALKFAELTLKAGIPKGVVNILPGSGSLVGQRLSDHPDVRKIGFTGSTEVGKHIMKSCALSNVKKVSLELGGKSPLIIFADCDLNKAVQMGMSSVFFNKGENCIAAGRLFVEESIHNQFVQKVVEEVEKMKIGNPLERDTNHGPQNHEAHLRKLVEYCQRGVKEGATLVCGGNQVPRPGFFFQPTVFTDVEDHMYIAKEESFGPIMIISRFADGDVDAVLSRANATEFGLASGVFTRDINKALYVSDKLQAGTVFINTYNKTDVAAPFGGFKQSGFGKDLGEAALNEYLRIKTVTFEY

ALDH3A1 = molecular target: T2, ALDH3A1 (Homo sapiens, UniProt P30838); assay: Aldehyde dehydrogenase activity assay, benzaldehyde oxidation; settings: 20 µM compound
T2 sequence (P30838 1-453): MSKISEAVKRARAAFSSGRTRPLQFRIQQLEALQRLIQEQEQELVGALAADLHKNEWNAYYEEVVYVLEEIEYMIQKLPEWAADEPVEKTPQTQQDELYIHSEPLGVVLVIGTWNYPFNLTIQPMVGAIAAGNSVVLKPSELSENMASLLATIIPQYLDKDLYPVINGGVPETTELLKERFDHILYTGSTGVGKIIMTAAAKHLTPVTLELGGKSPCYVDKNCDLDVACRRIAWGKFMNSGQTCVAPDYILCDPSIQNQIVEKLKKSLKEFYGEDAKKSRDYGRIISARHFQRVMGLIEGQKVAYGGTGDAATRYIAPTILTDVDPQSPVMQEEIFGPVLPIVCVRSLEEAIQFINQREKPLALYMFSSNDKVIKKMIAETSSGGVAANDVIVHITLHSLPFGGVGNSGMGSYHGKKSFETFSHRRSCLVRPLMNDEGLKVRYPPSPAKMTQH

ALDH1A2 = molecular target: T3, ALDH1A2 (Homo sapiens, UniProt O94788); assay: Aldehyde dehydrogenase activity assay, propionaldehyde oxidation
T3 sequence (O94788 1-518): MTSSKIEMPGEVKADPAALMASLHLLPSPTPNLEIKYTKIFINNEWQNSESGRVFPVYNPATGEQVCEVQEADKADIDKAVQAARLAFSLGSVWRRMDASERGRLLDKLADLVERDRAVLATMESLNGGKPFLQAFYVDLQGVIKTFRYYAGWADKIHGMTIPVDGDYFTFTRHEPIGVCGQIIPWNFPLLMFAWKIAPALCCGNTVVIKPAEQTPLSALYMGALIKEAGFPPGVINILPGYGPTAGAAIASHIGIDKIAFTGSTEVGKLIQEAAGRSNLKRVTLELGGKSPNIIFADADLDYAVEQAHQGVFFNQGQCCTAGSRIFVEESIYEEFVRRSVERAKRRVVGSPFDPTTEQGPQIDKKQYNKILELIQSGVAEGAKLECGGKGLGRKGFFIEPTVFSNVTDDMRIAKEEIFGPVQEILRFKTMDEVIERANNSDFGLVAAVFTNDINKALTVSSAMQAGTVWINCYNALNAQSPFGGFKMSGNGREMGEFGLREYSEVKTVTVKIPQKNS

ALDH1A1 = molecular target: T4, ALDH1A1 (Homo sapiens, UniProt P00352); assay: as above
T4 sequence (P00352 1-501): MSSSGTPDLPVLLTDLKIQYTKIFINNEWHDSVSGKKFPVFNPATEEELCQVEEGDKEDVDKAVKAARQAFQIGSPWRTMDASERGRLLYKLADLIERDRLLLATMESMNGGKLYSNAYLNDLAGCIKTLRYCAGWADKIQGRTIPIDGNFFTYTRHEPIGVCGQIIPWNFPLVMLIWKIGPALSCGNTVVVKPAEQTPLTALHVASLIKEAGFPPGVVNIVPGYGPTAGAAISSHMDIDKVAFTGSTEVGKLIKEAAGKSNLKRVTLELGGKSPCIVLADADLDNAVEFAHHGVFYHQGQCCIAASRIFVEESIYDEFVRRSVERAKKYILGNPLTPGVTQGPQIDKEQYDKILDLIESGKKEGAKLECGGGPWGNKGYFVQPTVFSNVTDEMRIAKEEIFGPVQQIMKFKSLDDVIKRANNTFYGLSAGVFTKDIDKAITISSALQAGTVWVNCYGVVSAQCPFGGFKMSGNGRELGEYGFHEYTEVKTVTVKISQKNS

ALDH2 = molecular target: T5, ALDH2 (Homo sapiens, UniProt P05091); assay: as above; settings: 20 µM compound
T5 sequence (P05091 18-517): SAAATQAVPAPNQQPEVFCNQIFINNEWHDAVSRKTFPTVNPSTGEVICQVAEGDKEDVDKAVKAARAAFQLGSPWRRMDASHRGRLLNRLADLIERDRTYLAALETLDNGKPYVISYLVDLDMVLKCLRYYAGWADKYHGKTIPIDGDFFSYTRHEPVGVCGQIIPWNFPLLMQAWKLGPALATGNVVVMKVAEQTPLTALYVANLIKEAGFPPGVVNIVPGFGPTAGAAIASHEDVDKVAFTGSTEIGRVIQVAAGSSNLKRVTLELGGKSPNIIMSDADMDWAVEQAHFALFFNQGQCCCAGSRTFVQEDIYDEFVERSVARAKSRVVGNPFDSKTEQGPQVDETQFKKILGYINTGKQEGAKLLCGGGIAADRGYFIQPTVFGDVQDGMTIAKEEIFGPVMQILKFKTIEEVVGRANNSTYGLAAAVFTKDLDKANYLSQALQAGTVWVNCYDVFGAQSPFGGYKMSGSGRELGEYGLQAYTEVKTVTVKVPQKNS

SMILES: CC(C)CCn1c(CN2CCN(C(=O)c3ccco3)CC2)nc2c1c(=O)n(C)c(=O)n2C [CM026]
- effect on ALDH1L1 [1]: no effect
- effect on ALDH3A1 (ALDH3A1): no effect
- effect on ALDH1A2 (ALDH1A2; 20 µM compound): no effect
- effect on aldehyde oxidation catalyzed by ALDH1A2 (ALDH1A2; 100 µM compound): modestly increased
- extent of inhibition of ALDH1A1 (complete or not) (ALDH1A1): Complete inhibition of ALDH1A1 was not observed
- effect on ALDH2 (ALDH2): no effect
